Experimental data: article PMC10133546, “Simultaneous determination of multiple components in rat plasma by UHPLC-sMRM for pharmacokinetic studies after oral administration of Qingjin Yiqi Granules” (Frontiers in Pharmacology, 2023)

Key:
[1] = Pharmacokinetic study in rat plasma after oral administration of QJYQ (UHPLC-sMRM); assay type: in vivo, Sprague-Dawley rats; settings: rat plasma after oral QJYQ 3.15 g/kg
Description: Exion LC AD tandem Blueline 3500 triple quadrupole mass spectrometer (AB SCIEX, Framingham, MA, United States) was used to thirty-three compounds in rat plasma. […] The whole detailed parameters of sMRM were obtained in Supplementary Table S1.
Rat plasma (100 μL) was mixed with 10% formic acid (10 μL) and vortexed for 1 min at room temperature. ISs (10 μL) and methanol/acetonitrile (1/1, v/v) (400 μL) were added and vortexed for 5 min, then centrifuged for 10 min at 14,000 rpm and 4°C. The transported supernatant was condensed to dryness under the flow of nitrogen gas. The dried residue was reconstituted with 70% methanol (100 μL) by vortex-mixing for 5 min and centrifuging at 14,000 rpm for 10 min. Last, 2 μL of the solution were injected into the UHPLC-sMRM system.
The pharmacokinetic study was approved by the Animal Ethics Committee of Tianjin University of Traditional Chinese Medicine (TCM-LAEC2021228). Ten male Sprague-Dawley rats (weight 220–240 g) was kept at the animal center of Tianjin University of Traditional Chinese Medicine (Tianjin, China). […] The sample was transferred right away following a 10 min period of centrifugation at 7000 rpm and 4°C. All plasma samples were frozen and stored at −80°C.
All the pharmacokinetic parameters were calculated using the DAS 1.0 software (Drug and Statistics 1.0, Medical College of Wannan, China). Pharmacokinetic parameters include the maximum drug concentration in plasma (Cmax), the time to achieve maximum drug concentration (Tmax), the area under the plasma concentration-time curve (AUC), elimination half-life (T1/2), and mean residence time (MRT). The pharmacokinetic parameters were computed using the non-compartmental model. All data are expressed as mean ± standard deviation (SD). GraphPad Prism 8.0 (GraphPad Software Inc., La Jolla, CA, United States) software was used to draw the drug-time curve.

[2] = Stability of analytes in rat plasma (auto-sampler, freeze-thaw, room temperature, long-term); settings: for Autosampler for 24 h Accuracy (%): autosampler 24 h; for Room temperature for 24 h Accuracy (%): room temperature 24 h; for Freeze thaw cycles Accuracy (%): three freeze-thaw cycles
[3] = Stability of the working solution (4°C for 1 month); assay type: physicochemical

| Compound | Autosampler for 24 h Accuracy (%) ([2]; 12.5 ng/mL) | Room temperature for 24 h Accuracy (%) ([2]; 12.5 ng/mL) | Freeze thaw cycles Accuracy (%) ([2]; 12.5 ng/mL) | −80°C for 1month Accuracy (%) ([2]; 12.5 ng/mL, −80°C 1 month) | Autosampler for 24 h Accuracy (%) ([2]; 50 ng/mL) | Room temperature for 24 h Accuracy (%) ([2]; 50 ng/mL) | −80°C for 1month Accuracy (%) ([2]; 50 ng/mL, −80°C 1 month) | Autosampler for 24 h Accuracy (%) ([2]; 100 ng/mL) | Room temperature for 24 h Accuracy (%) ([2]; 100 ng/mL) | Freeze thaw cycles Accuracy (%) ([2]; 100 ng/mL) | Autosampler for 24 h Accuracy (%) ([2]; 500 ng/mL) | Room temperature for 24 h Accuracy (%) ([2]; 500 ng/mL) | Freeze thaw cycles Accuracy (%) ([2]; 500 ng/mL) | −80°C for 1month Accuracy (%) ([2]; 500 ng/mL, −80°C 1 month) | Working solution Accuracy (%) ([3]; 50 ng/mL) | Working solution Accuracy (%) ([3]; 100 ng/mL) | Working solution Accuracy (%) ([3]; 500 ng/mL) | −80°C for 1month Accuracy (%) ([2]; 100 ng/mL, −80°C 1 month) | Working solution Accuracy (%) ([3]; 12.5 ng/mL) | Working solution Accuracy (%) ([3]; 1.56 ng/mL) | other results |
| --- | --- | --- | --- | --- | --- | --- | --- | --- | --- | --- | --- | --- | --- | --- | --- | --- | --- | --- | --- | --- | --- |
| O=C(/C=C/c1ccc(O)c(O)c1)O[C@@H]1C[C@](O)(C(=O)O)C[C@@H](O)[C@H]1O [chlorogenic acid] | 94.6% | 97.3% | 100.0% | 98.3% | 97.5% | 106.0% | 115.0% | 96.9% | 105.0% | 95.5% | 85.5% | 94.3% | 96.9% | 94.3% | – | – | – | – | – | – | detection in rat plasma [1]: not detected |
| O=C(O)[C@H]1O[C@@H](Oc2cc3oc(-c4ccc(O)cc4)cc(=O)c3c(O)c2O)[C@H](O)[C@@H](O)[C@@H]1O [scutellarin] | – | – | – | – | – | 91.2% | 92.2% | 109.0% | 101.0% | 111.0% | 101.0% | 105.0% | 112.0% | 103.0% | 97.2% | 108.0% | 100.0% | 101.0% | – | – | Working solution Accuracy (%) ([3]; 200 ng/mL): 99.4%; Autosampler for 24 h Accuracy (%) ([2]; 200 ng/mL): 94.7%; Room temperature for 24 h Accuracy (%) ([2]; 200 ng/mL): 90.6%; Freeze thaw cycles Accuracy (%) ([2]; 200 ng/mL): 85.4%; −80°C for 1month Accuracy (%) ([2]; 200 ng/mL, −80°C 1 month): 90.4% |
| O=C(/C=C/c1ccc(O)c(O)c1)O[C@H]1[C@H](O)C[C@](O)(C(=O)O)C[C@H]1O [cryptochlorogenic acid] | 94.6% | 90.6% | 84.5% | 90.6% | 93.1% | 91.2% | 107.0% | 92.7% | – | 88.9% | 109.0% | 100.0% | 98.7% | 104.0% | 95.0% | 94.6% | 96.8% | 110.0% | 87.6% | – | Freeze thaw cycles Accuracy (%) ([2]; 50 ng/mL): 86.6% |
| CC(C)=CCC[C@](C)(O)[C@H]1CC[C@]2(C)[C@@H]1[C@H](O)C[C@@H]1[C@@]3(C)CC[C@H](O)C(C)(C)[C@@H]3[C@@H](O[C@@H]3O[C@H](CO)[C@@H](O)[C@H](O)[C@H]3O)C[C@]12C [ginsenoside Rh1] | – | – | – | – | 86.5% | 100.0% | 107.0% | 90.8% | 96.5% | 100.0% | – | – | – | – | 106.0% | 95.1% | – | 93.5% | – | – | Autosampler for 24 h Accuracy (%) ([2]; concentration 200 ng/mL): 96.5%; Autosampler for 24 h Accuracy (%) ([2]; concentration 500 ng/mL): 108.0%; Room temperature for 24 h Accuracy (%) ([2]; concentration 500 ng/mL): 98.7%; Freeze thaw cycles Accuracy (%) ([2]; concentration 500 ng/mL): 94.1%; −80°C for 1month Accuracy (%) ([2]; −80°C for 1 month, concentration 500 ng/mL): 114.0% |
| O=C1C[C@@H](c2ccc(O)cc2)Oc2cc(O)cc(O)c21 [naringenin] | – | 94.4% | 97.6% | 85.7% | 98.3% | – | 98.2% | 99.5% | 92.9% | – | 107.0% | 95.2% | – | 94.2% | 102.0% | 85.6% | 98.2% | 97.4% | 93.5% | – | – |
| COc1c2c(cc3oc(CO)cc(=O)c13)O[C@H](C(C)(C)O)C2 [cimifugin] | 91.1% | – | 92.0% | 96.3% | – | – | – | 100.0% | 98.0% | 95.7% | 102.0% | 98.6% | 93.2% | 95.2% | – | – | 86.7% | 99.6% | 100.0% | 90.5% | Autosampler for 24 h Accuracy (%) ([2]; 1.56 ng/mL): 102.0%; Room temperature for 24 h Accuracy (%) ([2]; 1.56 ng/mL): 92.4%; Freeze thaw cycles Accuracy (%) ([2]; 1.56 ng/mL): 84.5%; −80°C for 1month Accuracy (%) ([2]; 1.56 ng/mL, −80°C 1 month): 83.9% |
| CC(C)(O[C@@H]1O[C@H](CO)[C@@H](O)[C@H](O)[C@H]1O)[C@@H]1CC[C@](O)(CO)[C@H]2CC(=O)[C@@](C)(O)[C@@H]2C1 [atractyloside A] | – | – | – | – | 107.0% | 97.6% | 89.7% | 94.4% | 104.0% | – | 103.0% | 91.2% | – | 92.2% | 88.5% | 104.0% | 97.2% | 96.2% | – | – | Working solution Accuracy (%) ([3]; 200 ng/mL): 87.0%; Freeze thaw cycles Accuracy (%) ([2]; 50 ng/mL): 84.6%; Autosampler for 24 h Accuracy (%) ([2]; 200 ng/mL): 91.5%; Room temperature for 24 h Accuracy (%) ([2]; 200 ng/mL): 89.9%; Freeze thaw cycles Accuracy (%) ([2]; 200 ng/mL): 97.0%; −80°C for 1month Accuracy (%) ([2]; 200 ng/mL, −80°C 1 month): 93.4% |
| O=c1cc(-c2ccc(O)cc2)oc2c([C@@H]3O[C@H](CO)[C@@H](O)[C@H](O)[C@H]3O)c(O)cc(O)c12 [vitexin] | 93.5% | 105.0% | 92.0% | 106.0% | – | – | – | 93.2% | 88.3% | 85.5% | 92.4% | 107.0% | 108.0% | 92.6% | – | 89.9% | 106.0% | 93.2% | 88.3% | 95.6% | Autosampler for 24 h Accuracy (%) ([2]; 1.56 ng/mL): 95.0%; Room temperature for 24 h Accuracy (%) ([2]; 1.56 ng/mL): 92.0%; Freeze thaw cycles Accuracy (%) ([2]; 1.56 ng/mL): 103.0%; −80°C for 1month Accuracy (%) ([2]; 1.56 ng/mL, −80°C 1 month): 90.4% |
| COc1ccc(-c2coc3cc(O[C@@H]4O[C@H](CO)[C@@H](O)[C@H](O)[C@H]4O)ccc3c2=O)cc1 [ononin] | 95.3% | 109.0% | 108.0% | 92.2% | – | – | – | 94.4% | 86.9% | 99.0% | 104.0% | 93.2% | – | 98.2% | – | 104.0% | 91.3% | – | 87.5% | 84.3% | Room temperature for 24 h Accuracy (%) ([2]; 1.56 ng/mL): 98.6%; Freeze thaw cycles Accuracy (%) ([2]; 1.56 ng/mL): 95.6%; −80°C for 1month Accuracy (%) ([2]; 1.56 ng/mL, −80°C 1 month): 111.0% |
| COc1c2ccoc2c(OC)c2oc(=O)ccc12 [isopimpinellin (IS)] | – | – | – | – | – | – | – | – | – | – | – | – | – | – | – | – | – | – | – | – | Working solution Accuracy (%) ([3]; concentration 100 ng/mL): 93.5%; Autosampler for 24 h Accuracy (%) ([2]; concentration 100 ng/mL): 98.6%; Room temperature for 24 h Accuracy (%) ([2]; concentration 100 ng/mL): 96.5%; Freeze thaw cycles Accuracy (%) ([2]; concentration 100 ng/mL): 88.2%; −80°C for 1month Accuracy (%) ([2]; −80°C for 1 month, concentration 100 ng/mL): 109.0% |
